According to patent US8017769B2, “Colorless water-soluble organic luminophores and intermediates thereof” (priority 2005, dated 2011):

Legend:
[1] = result in words
[2] = colourless aqueous solution

SMILES	solubility in water [1]	fluorescence wavelength maximum [2]
O=S(=O)([O-])c1cccc(Nc2nc(Nc3ccc(S(=O)(=O)[O-])cc3-c3nc4ccccc4s3)nc(N3CCOCC3)n2)c1.[Na+].[Na+] [Compound IX, Disodium salt of 4-[4-(3-sulfophenylamino)-6-morpholino-1,3,5-triazin-2-ylamino]-3-(benzo[d]thiazol-2-yl)benzenesulfonic acid]	highly soluble in water	565 nm
O=S(=O)([O-])c1ccc(Nc2nc(Cl)nc(Nc3ccc(S(=O)(=O)[O-])cc3-c3nc4ccccc4s3)n2)c(-c2nc3ccccc3s2)c1.[Na+].[Na+] [Compound V, Disodium salt of 4-{4-[2-(benzo[d]thiazol-2-yl)-4-sulfophenylamino]-6-chloro-1,3,5-triazin-2-ylamino}-3-(benzo[d]thiazol-2-yl)benzenesulfonic acid]	poorly soluble in water	–
O=C([O-])CN(CC(=O)[O-])c1nc(Nc2ccc(S(=O)(=O)[O-])cc2-c2nc3ccccc3s2)nc(N(CC(=O)[O-])CC(=O)[O-])n1.[K+].[K+].[K+].[K+].[K+] [Compound IV, Pentapotassium salt of 4-{4,6-bis-[di(carboxymethyl)amino]-1,3,5-triazin-2-ylamino}-3-(benzo[d]thiazol-2-yl)benzenesulfonic acid]	highly soluble in water	570 nm
O=S(=O)([O-])c1ccc(Nc2nc(Cl)nc(Cl)n2)c(-c2nc3ccccc3s2)c1.[Na+] [Compound II, Sodium salt of 4-(4,6-dichloro-1,3,5-triazin-2-ylamino)-3-(benzo[d]thiazol-2-yl)benzenesulfonic acid]	not soluble in water	–
O=C(Nc1ccc(S(=O)(=O)[O-])cc1-c1nc2ccccc2s1)c1ccccc1S(=O)(=O)[O-].[Na+].[Na+] [Compound VII, Disodium salt of 4-(2-sulfobenzoylamino)-3-(benzoldlthiazol-2-yl)benzenesulfonic acid]	highly soluble in water	547 nm
O=S(=O)([O-])c1cccc(Nc2nc(Cl)nc(Nc3ccc(S(=O)(=O)[O-])cc3-c3nc4ccccc4s3)n2)c1.[Na+].[Na+] [Compound III, Disodium salt of 4-[4-Chloro-6-(3-sulfophenylamino)-1,3,5-triazin-2-ylamino]-3-(benzo[d]thiazol-2-yl)benzenesulfonic acid]	highly soluble in water	550 nm
O=S(=O)([O-])c1ccc(Nc2nc(Nc3ccc(S(=O)(=O)[O-])cc3-c3nc4ccccc4s3)nc(N3CCOCC3)n2)c(-c2nc3ccccc3s2)c1.[Na+].[Na+] [Compound VI, Disodium salt of 4-{4-[2-(benzo[d]thiazol-2-yl)-4-sulfophenylamino]-6-morpholino-1,3,5-triazin-2-ylamino}-3-(benzo[d]thiazol-2-yl)benzenesulfonic acid]	highly soluble in water	582 nm

The next lines start with the values.

solubility in water [1]	fluorescence wavelength maximum [2]	SMILES
highly soluble in water	565 nm	O=C([O-])CNc1nc(NCC(=O)[O-])nc(Nc2ccc(S(=O)(=O)[O-])cc2-c2nc3ccccc3s2)n1.[Na+].[Na+].[Na+] [Compound X, Trisodium salt of 4-[4,6-bis(carboxymethylamino)-1,3,5-triazin-2-ylamino]-3-(benzo[d]thiazol-2-yl)benzenesulfonic acid]
highly soluble in water	548 nm	O=C([O-])CNc1nc(Cl)nc(Nc2ccc(S(=O)(=O)[O-])cc2-c2nc3ccccc3s2)n1.[Na+].[Na+] [Compound VIII, Disodium salt of 4-(4-carboxymethylamino-6-chloro-1,3,5-triazin-2-ylamino)-3-(benzo[d]thiazol-2-yl)benzenesulfonic acid]
highly soluble in water	517 nm	O=S(=O)([O-])c1cccc(Nc2nc(Cl)nc(Nc3ccc(S(=O)(=O)[O-])cc3-c3nc4ccccc4o3)n2)c1.[Na+].[Na+] [Compound XIII, Disodium salt of 4-[4-chloro-6-(3-sulfophenylamino)-1,3,5-triazin-2-ylamino]-3-(benzo[d]oxazol-2-yl)benzenesulfonic acid]
highly soluble in water	517 mm	N.N.N.O=C(O)CN(CC(=O)O)c1nc(Cl)nc(Nc2ccc(S(=O)(=O)O)cc2-c2nc3ccccc3o2)n1 [Compound XIV, Triammonium salt of 4-{4-chloro-6-[di(carboxymethyl)amino]-1,3,5-triazin-2-ylamino}-3-(benzo[d]oxazol-2-yl)benzenesulfonic acid]
